Columns and labels:
[1] = test system: serum lipids and serum lipid hydroperoxide; assay: Pharmacological test method B for anti-hyperlipidemic activity (serum lipids, 4 weeks feeding); type: in vivo, male Wistar strain rats; conditions: for AI [(TC - HDL-C)/(HDL-C)] / HDL-C in serum / LPO in serum / PL in serum / TC in serum / TG in serum: 1% in hyperlipidemic diet, 4 weeks
Protocol: Pharmacological test method B for anti-hyperlipidemic acitivity (the term "method B" was used in the present specification)
(§1) Male Wistar strain rats (100±1 g, each 8 rats were formed into a group except that the control group fed with a hyperlipidemic diet was formed of 16 rats) were used as test animals. A powdery diet (CE-2, supplied by Clea Japan, Inc.) was used as ordinary diet. The hyperlipidemic diet was prepared by fortifying the ordinary diet with cholesterol (1%) and cholic acid (0.5%). Each test compound (1%) for administration was admixed with the hyperlipidemic diet. Each two rats were kept in a cage and given the prescribed diet and water ad libitum. Thus the rats were fed for 4 weeks at a constant temperature of 23±1° C. and a constant R.H. of 55±5%. Finally, the rats were fasted from food except water for 16 hours (from 4 p.m. of the 28th test day to 8 a.m. of the 29th test day), and under anesthesia with pentbarbital sodium (tradename: Nembutal), blood was taken from each rat through the descending abdominal arota. Then, TC, HDL-C, TG, PL, and LPO in the serum were measured in the following manner.
A TC kit-K (supplied by Nippon Shoji Kaisha, Ltd.) was used. The principle of this determination is as follows: The ester of cholesterol in the serum is hydrolyzed with cholesterol-ester hydrolase into free cholesterol and fatty acids. All the free cholesterol is oxidized with cholesterol oxydase to form Δ^4 -cholestenone and hydrogen peroxide. Phenol and 4-aminoantipyrin are oxidatively condensed together by the formed hydrogen peroxide and peroxydase. The produced red quinone coloring matter is measured by colorimetry for absorbance at 500 nm using a spectrophotometer, thereby determining the TC:
The color-developing liquid (3.0 ml) is well mixed with the sample serum (0.02 ml). The mixture once heated at 37° C. for 15 minutes, is measured for absorbance at 500 nm with a spectrophotometer. The found absorbance is denoted by EA. On the other hand, the color-developing liquid (3.0 ml) is well mixed with the standard solution. The mixture is treated and measured for absorbance at 500 nm in the same manner as the above. This found absorbance is denoted by ES. Both EA and ES are determined with reference to the value of the blank test conducted using the color-developing liquid (3.0 ml) alone. [formula]
An HDL-C kit-N (supplied by Nippon Shoji Kaisha, Ltd.) was used. […] (VLDL) and lo density lipoprotein (LDL) in the serum is precipitated by the action of heparin. The precipitate is separated by centrifugation. High density lipoprotein (HDL) is dissolved in the separated supernatant. Esters of cholesterol in this fraction is hydrolyzed with cholesterol-ester hydrolase into free cholesterol and fatty acids. All the free cholesterol is oxidized with cholesterol oxydase to form Δ^4 -cholestenone and hydrogen peroxide. Phenol and 4-aminoantipyrine are oxidatively condensed together by the formed hydrogen peroxide and peroxydase. The produced red quinone coloring matter is measured by colorimetry for absorbance at 500 nm using a spectrophotometer, thereby determining the HDL-C.
A PL kit-K (supplied by Nippon Shoji Kaisha, Ltd.) was used for the determination. Lecithin, sphingomyelin, and lysolecithin are decomposed by phospholipase D into choline and phosphatidic acid, N-acylsphingosyl phosphate, or lysophosphatidic acid, respectively. The resulting choline is quantitatively decomposed by choline oxydase into hydrogen peroxide and betaine. With this hydrogen peroxide, and aid of peroxydase, phenol and 4-aminoantipyrin are condensed into red quinone pigment, then the absorbance at 500 nm of which is measured with a spectrophotometer, thereby determining the PL. […]

[2] = Body weight of rats in method B; parameters: species or system male Wistar strain rats; conditions: rat, in vivo
Protocol: as §1

| Structure (SMILES) | AI [(TC - HDL-C)/(HDL-C)] [1] | HDL-C in serum [1] [mg/dL] | LPO in serum [1] [nmol/mL] | PL in serum [1] [mg/dL] | TC in serum [1] [mg/dL] | TG in serum [1] [mg/dL] | HDL-C rise compared with normal diet group ([1]; versus normal diet group) | Body weight during feed period, 1st day [2] [g] | Body weight during feed period, 8th day [2] [g] | Body weight during feed period, 15th day [2] [g] | Body weight during feed period, 22nd day [2] [g] | Body weight during feed period, 28th day [2] [g] | Body weight just before blood sampling, 29th day [2] [g] |
| --- | --- | --- | --- | --- | --- | --- | --- | --- | --- | --- | --- | --- | --- |
| COc1ccc(N)cc1C(=O)OC1CCC23CC24CCC2(C)C(C(C)CCC(C)=C(C)C)CCC2(C)C4CCC3C1(C)C (stereo not shown) [Example 173, cyclobranyl ester of 5-amino-2-methoxybenzoic acid] | 3.671 | 58.4 | 2.23 | 127.2 | 272.8 | 65.2 | remarkable rises | 105 ± 3.6 | 142 ± 10.5 | 190 ± 18.2 | 240 ± 23.5 | 271 ± 24.2 | 258 ± 23.6 |
| COc1cc(C=CC(=O)OC2CCC34CC35CCC3(C)C(C(C)CCC=C(C)C)CCC3(C)C5CCC4C2(C)C)ccc1N (stereo not shown) [Example 177, Cycloartenyl ester of 4-amino-3-methoxycinnamic acid] | 6.554 | 32.5 | 2.29 | 125.8 | 245.5 | 63.1 |  | 104 ± 3.9 | 142 ± 9.6 | 187 ± 12.8 | 238 ± 21.2 | 267 ± 25.2 | 256 ± 27.1 |
| CCOc1ccc(N)cc1C=CC(=O)OC1CCC23CC24CCC2(C)C(C(C)CCC=C(C)C)CCC2(C)C4CCC3C1(C)C (stereo not shown) [Example 183, Cycloartenyl ester of 5-amino-2-ethoxycinnamic acid] | 7.356 | 29.2 | 2.08 | 125.7 | 244.0 | 65.2 |  | 105 ± 3.9 | 142 ± 8.8 | 189 ± 11.9 | 239 ± 16.5 | 268 ± 20.9 | 257 ± 18.8 |
| COc1cc(C=C(C)C(=O)OC2CCC34CC35CCC3(C)C(C(C)CCC=C(C)C)CCC3(C)C5CCC4C2(C)C)ccc1N (stereo not drawn) [Example 189, Cycloartenyl ester of 4-amino-3-methoxy-α-methylcinnamic acid] | 4.071 | 35.4 | 2.05 | 115.0 | 179.5 | 58.4 |  | 104 ± 3.8 | 142 ± 8.1 | 188 ± 12.6 | 239 ± 20.6 | 268 ± 22.7 | 256 ± 20.2 |
